{"source": "ChEMBL document CHEMBL1201862", "about": "“PubChem BioAssay data set” (2004)", "key": {"[1]": {"molecular_target": "Potassium voltage-gated channel subfamily KQT member 2 (Rattus norvegicus, UniProt O88943)", "sequence (O88943 whole entry)": "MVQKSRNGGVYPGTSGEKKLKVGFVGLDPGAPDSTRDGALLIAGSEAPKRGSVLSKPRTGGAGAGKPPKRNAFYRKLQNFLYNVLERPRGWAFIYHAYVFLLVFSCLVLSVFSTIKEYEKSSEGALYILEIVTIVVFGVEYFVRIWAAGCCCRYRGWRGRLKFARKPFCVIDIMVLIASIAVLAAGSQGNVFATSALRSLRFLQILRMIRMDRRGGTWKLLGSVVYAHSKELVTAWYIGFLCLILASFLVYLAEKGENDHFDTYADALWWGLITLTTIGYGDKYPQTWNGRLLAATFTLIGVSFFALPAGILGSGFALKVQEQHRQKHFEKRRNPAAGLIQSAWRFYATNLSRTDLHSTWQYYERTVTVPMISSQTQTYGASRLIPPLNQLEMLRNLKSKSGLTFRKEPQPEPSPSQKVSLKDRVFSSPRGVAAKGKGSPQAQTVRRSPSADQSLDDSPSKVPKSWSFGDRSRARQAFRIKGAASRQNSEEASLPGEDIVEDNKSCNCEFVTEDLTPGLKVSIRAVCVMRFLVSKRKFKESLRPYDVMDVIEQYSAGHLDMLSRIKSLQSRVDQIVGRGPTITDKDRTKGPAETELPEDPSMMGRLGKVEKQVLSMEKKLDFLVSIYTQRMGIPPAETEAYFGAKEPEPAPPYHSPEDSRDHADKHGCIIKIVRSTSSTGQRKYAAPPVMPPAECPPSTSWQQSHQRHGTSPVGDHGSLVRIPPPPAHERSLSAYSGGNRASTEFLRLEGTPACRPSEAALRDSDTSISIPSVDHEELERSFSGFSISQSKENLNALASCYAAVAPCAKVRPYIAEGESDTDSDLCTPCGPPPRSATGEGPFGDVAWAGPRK", "test": "KCNQ2 potassium channel inhibitors, dose response, cell-based, automated electrophysiology, set II, rat KCNQ2 (AID 588637)", "assay_type": "functional"}, "cells [2]": {"test": "cells", "assay_type": "functional, cell-based"}, "[3]": {"molecular_target": "T1, Probable nicotinate-nucleotide adenylyltransferase (Staphylococcus aureus (strain N315), UniProt P65502)", "T1 sequence (P65502 whole entry)": "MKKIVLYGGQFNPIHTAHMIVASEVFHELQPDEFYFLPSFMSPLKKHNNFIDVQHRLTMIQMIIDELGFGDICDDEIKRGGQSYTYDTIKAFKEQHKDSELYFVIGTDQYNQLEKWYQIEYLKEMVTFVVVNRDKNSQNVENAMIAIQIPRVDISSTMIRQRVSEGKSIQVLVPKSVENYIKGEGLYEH", "assay_type": "functional, Staphylococcus aureus subsp. aureus N315", "details": "read-out: IC50_Mean"}, "cells [4]": {"test": "cells", "assay_type": "functional, cell-based", "remark": "listed apart in the source"}, "[5]": {"molecular_target": "T1, Probable nicotinate-nucleotide adenylyltransferase", "assay_type": "functional, Staphylococcus aureus subsp. aureus N315"}, "[6]": {"molecular_target": "Photoreceptor-specific nuclear receptor (Homo sapiens, UniProt Q9Y5X4)", "sequence (Q9Y5X4 whole entry)": "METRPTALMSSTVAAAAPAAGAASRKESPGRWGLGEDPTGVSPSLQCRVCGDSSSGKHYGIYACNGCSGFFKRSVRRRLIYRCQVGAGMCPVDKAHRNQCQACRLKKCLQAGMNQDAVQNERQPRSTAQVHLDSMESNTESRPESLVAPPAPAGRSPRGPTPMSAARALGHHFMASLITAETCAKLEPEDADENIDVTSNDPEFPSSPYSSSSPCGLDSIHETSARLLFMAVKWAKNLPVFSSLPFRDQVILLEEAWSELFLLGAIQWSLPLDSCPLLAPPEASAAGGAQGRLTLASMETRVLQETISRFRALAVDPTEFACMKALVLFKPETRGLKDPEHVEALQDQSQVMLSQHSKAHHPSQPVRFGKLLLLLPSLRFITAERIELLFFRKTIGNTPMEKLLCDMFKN", "assay_type": "functional, cell-based"}, "[7]": {"test": "Luminescence Cell-Based Dose Retest to Confirm Inhibitors of Cancer Stem Cells. [Related pubchem assays (depositor defined):AID2717, AID2721]", "assay_type": "functional", "details": "Homo sapiens"}, "[8]": {"molecular_target": "T2, High affinity choline transporter 1 (Homo sapiens, UniProt Q9GZV3)", "T2 sequence (Q9GZV3 whole entry)": "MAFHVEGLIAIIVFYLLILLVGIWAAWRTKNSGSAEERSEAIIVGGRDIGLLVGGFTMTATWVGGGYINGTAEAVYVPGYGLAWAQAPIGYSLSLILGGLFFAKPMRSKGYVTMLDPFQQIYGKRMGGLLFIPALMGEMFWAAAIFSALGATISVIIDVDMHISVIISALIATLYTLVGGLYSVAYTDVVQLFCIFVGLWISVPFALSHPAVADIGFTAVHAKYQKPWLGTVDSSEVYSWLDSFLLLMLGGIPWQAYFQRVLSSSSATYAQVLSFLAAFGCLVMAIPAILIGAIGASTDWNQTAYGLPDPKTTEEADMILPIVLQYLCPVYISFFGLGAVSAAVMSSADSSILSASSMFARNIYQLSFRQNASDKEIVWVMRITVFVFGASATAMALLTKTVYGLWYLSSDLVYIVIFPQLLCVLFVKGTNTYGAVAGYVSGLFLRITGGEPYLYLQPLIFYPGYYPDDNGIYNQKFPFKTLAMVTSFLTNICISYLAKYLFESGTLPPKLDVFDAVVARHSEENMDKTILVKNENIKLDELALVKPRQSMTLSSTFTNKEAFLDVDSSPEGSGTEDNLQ", "test": "CHT inhibitors, dose response, cell-based, 10-point CRC, membrane potential dye (AID 588401);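 further: membrane potential dye fluorescence of choline-evoked depolarization via CHT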", "assay_type": "functional"}, "[9]": {"test": "A cytotoxicity screen of small molecule inhibitors of the PhoP region in Salmonella typhi identified in the primary screen. [Related pubchem assays: 1850, 1864, 1985 ]", "assay_type": "functional"}, "[10]": {"molecular_target": "T2, High affinity choline transporter 1", "test": "CHT inhibitors, dose response, cell-based, 5-point CRC, membrane potential dye (AID 504840)", "assay_type": "functional"}, "[11]": {"molecular_target": "Ras and Rab interactor 1/Tyrosine-protein kinase ABL1 (Homo sapiens, UniProt P00519+Q13671)", "sequence (P00519 whole entry)": "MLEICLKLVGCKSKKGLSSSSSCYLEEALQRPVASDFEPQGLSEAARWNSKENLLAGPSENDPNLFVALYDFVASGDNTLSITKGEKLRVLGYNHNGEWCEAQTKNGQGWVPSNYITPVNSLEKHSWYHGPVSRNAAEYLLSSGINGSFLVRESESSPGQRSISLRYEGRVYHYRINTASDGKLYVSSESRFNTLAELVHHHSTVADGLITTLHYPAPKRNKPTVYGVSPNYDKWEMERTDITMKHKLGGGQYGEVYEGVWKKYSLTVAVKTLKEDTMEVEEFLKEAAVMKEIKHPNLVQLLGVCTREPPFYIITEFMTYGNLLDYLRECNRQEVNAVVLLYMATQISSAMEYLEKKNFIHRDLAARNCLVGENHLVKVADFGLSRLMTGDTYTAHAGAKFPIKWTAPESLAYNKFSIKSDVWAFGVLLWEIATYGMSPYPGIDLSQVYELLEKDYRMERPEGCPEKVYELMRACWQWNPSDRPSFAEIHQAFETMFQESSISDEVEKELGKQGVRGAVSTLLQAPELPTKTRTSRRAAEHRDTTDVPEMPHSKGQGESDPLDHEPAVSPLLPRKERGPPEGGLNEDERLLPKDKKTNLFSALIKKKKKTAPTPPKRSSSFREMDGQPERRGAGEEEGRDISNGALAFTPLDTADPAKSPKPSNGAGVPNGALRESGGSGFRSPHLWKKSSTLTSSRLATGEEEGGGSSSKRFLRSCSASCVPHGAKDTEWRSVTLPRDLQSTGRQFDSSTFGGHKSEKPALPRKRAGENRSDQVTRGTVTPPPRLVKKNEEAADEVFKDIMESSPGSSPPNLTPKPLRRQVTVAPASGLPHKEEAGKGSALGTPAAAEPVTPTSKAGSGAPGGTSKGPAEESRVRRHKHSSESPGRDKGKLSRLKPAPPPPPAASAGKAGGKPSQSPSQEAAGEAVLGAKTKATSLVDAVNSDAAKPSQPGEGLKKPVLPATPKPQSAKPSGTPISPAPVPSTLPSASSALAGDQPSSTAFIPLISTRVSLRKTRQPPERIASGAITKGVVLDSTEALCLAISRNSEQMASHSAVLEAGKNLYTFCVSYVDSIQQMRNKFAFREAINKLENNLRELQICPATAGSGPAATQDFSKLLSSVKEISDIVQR", "sequence (Q13671 whole entry)": "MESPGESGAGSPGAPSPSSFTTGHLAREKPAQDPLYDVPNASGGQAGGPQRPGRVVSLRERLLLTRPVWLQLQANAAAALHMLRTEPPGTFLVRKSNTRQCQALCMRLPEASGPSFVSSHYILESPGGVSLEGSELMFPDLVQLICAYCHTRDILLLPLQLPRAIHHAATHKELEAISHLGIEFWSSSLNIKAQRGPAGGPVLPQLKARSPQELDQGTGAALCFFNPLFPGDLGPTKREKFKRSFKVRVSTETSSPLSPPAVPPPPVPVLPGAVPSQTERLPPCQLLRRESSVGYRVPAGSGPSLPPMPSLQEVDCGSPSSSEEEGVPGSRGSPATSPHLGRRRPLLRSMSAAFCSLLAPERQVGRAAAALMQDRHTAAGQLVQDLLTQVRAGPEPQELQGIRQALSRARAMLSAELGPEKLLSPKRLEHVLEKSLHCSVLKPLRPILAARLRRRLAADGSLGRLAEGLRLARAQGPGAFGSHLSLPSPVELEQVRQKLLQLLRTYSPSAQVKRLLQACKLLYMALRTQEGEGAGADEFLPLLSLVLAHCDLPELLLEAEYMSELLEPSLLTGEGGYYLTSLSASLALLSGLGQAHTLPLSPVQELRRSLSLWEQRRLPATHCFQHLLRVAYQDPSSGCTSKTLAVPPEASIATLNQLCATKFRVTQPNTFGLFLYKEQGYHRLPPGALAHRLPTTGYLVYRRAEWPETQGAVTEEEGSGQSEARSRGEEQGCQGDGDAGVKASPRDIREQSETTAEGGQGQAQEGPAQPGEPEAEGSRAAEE", "assay_type": "functional"}, "[12]": {"test": "ARNT/TACC3 interaction disruptors, potency, confirmation, biochemical, AlphaScreen, cherry-picked samples (AID 651703);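 further: His-tagged ARNT PAS-B domain paired with GST-TACC3 E629A dimer coactivator fragment; potency of inhibitors that break up the complex and lower AlphaScreen signal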", "assay_type": "functional, Homo sapiens"}, "[13]": {"molecular_target": "T3, ATP-dependent translocase ABCB1 (Homo sapiens, UniProt P08183)", "T3 sequence (P08183 whole entry)": "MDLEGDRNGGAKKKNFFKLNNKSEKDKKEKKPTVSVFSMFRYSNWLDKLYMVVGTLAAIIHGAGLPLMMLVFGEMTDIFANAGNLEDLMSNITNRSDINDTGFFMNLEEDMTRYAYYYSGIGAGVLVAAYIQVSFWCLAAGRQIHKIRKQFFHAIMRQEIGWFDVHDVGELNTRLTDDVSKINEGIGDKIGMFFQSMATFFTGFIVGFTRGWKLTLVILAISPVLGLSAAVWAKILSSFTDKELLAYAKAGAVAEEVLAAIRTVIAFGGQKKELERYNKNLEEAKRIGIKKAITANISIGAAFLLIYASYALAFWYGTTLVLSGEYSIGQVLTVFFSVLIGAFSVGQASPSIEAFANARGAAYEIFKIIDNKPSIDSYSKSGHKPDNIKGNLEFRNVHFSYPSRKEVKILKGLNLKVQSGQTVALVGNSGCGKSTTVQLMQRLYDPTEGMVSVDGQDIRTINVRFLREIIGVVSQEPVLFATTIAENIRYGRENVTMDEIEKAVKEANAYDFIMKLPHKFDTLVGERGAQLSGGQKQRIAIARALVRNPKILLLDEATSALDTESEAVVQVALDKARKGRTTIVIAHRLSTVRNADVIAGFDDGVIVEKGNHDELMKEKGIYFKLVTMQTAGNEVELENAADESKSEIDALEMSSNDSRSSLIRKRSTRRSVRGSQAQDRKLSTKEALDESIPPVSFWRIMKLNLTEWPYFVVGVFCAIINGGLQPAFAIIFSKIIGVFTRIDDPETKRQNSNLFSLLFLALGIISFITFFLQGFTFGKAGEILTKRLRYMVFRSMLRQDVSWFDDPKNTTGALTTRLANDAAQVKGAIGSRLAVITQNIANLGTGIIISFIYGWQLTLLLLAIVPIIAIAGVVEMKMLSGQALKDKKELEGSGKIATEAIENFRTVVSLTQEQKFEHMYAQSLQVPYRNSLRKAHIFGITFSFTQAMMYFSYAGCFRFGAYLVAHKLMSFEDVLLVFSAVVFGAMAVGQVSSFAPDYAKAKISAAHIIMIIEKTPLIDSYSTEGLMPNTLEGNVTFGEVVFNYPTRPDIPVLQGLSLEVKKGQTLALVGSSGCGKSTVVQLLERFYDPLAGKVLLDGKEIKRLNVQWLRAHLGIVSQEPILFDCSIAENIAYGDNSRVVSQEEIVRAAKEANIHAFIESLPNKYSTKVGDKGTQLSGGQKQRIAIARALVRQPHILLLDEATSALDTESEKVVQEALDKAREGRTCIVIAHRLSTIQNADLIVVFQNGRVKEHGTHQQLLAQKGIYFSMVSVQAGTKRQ", "test": "ABCB1 efflux inhibitor potency, dose response, Jurkat-DNR cells, JC-1, flow cytometry, set 2 (AID 504569);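 further: potency of pump inhibitors that raise cellular JC-1 green fluorescence up to the nicardipine level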", "assay_type": "functional", "details": "read-out: EC50_MICROM_"}, "[14]": {"molecular_target": "T3, ATP-dependent translocase ABCB1", "test": "ABCG2 efflux pump inhibitor potency, dose response, Ig-MXP3 cells, JC-1, flow cytometry, set 2 (AID 504566);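 further: flow cytometry median green fluorescence of retained JC-1 dye; potency of efflux pump inhibition measured as rising substrate retention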", "assay_type": "functional", "details": "read-out: EC50_MICROM_"}, "[15]": {"molecular_target": "T4, Serine/threonine-protein phosphatase (Candida dubliniensis (strain CD36 / CBS 7987 / NCPF 3949 / NRRLY-17841) (Yeast), UniProt B9W6M3)", "T4 sequence (B9W6M3 whole entry)": "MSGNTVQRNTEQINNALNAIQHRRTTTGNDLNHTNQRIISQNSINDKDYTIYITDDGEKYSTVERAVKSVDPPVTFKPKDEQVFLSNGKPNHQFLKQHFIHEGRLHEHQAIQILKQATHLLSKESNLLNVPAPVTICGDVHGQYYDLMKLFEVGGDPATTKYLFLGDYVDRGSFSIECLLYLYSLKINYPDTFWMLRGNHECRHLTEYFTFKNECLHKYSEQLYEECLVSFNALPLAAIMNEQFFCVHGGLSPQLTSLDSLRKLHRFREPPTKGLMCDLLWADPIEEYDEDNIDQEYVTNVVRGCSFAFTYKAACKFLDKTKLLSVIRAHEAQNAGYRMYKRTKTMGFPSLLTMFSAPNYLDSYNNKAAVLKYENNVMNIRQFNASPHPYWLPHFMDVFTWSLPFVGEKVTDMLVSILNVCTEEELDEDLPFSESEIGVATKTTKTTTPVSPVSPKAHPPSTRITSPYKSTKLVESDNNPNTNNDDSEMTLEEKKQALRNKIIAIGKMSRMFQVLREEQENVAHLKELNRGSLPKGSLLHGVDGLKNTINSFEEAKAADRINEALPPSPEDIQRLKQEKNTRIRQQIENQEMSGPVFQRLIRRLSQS", "test": "calcineurin pathway inhibitors in yeast reporter, dose response, S. cerevisiae, CDRE-lacZ, luminescence, secondary (AID 2388);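 further: yeast reporter cells carrying a calcineurin-responsive lacZ construct stimulated with calcium chloride; luminescent beta-galactosidase reporter signal in whole cells rather than isolated phosphatase activity; potency for inhibition where a drop in reporter signal means calcineurin blockade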", "assay_type": "functional, cell-based"}, "[16]": {"molecular_target": "ATP-dependent molecular chaperone HSP82 (Candida albicans (strain WO-1) (Yeast), UniProt C4YTQ8)", "test": "loss of DOC-induced GRE-beta-galactosidase reporter signal, dose response, Hsp90 inhibitor project, S. cerevisiae, luminescence (AID 2400);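 further: beta-galactosidase luminescence from glucocorticoid response element reporter as proxy for Hsp90 function; inhibitor potency where signal loss means Hsp90 inhibition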", "assay_type": "functional, cell-based"}, "[17]": {"test": "inhibitors of firefly luciferase expression or activity, dose response, H4 neuroglioma cells, luminescence (AID 1990)", "assay_type": "functional, cell-based"}, "[18]": {"test": "cytotoxicity toward NIH3T3 fibroblasts, dose response, counter-screen, cell-based, ATP luminescence, mouse fibroblasts (AID 2010);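 further: cells exposed to compound for about 90 hours before reading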", "assay_type": "functional"}, "[19]": {"test": "NIH-3T3 fibroblast cytotoxicity, dose response, cytotoxicity control, cell-based, fluorescence, Alamar Blue, secondary assay (AID 2327);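 further: NIH-3T3 mouse fibroblasts cultured with fluconazole at 8 µg/mL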", "assay_type": "functional"}, "[20]": {"test": "Luminescence Cell-Based Dose Response HTS to Identify Inhibitors of 5'UTR Stem-Loop Driven Prion Protein mRNA Translation in H4 Neuroglioblastoma Cells. [Related pubchem assays: 1827 (Project Summary), 1813 (Primary HTS)]", "assay_type": "functional"}, "[21]": {"test": "inhibitors of SNCA 5'UTR-driven reporter translation, confirmation, H4 neuroglioma cells, luminescence (AID 1988)", "assay_type": "functional, cell-based"}, "[22]": {"test": "inhibitors of intracellular T. cruzi replication, confirmation, NIH3T3 host cells, beta-gal luminescence (AID 2044);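 further: luminescent beta-galactosidase reporter signal from transgenic T. cruzi replicating inside host cells; inhibitors lower the luminescence signal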", "assay_type": "functional, cell-based"}, "INS1": {"test_system": "INS1", "test": "beta cell apoptosis inhibitors, cytokine rescue, dose response, luminescence, retest (AID 449756);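 further: cell death triggered by IL-1 beta plus TNF-alpha plus IFN-gamma mixture; protective hits raise ATP signal compared with cytokine alone wells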", "assay_type": "functional, cell-based", "details": "Rattus norvegicus"}, "[23]": {"test": "C. albicans growth with fluconazole, confirmation, fluorescence, retest (AID 2467)", "assay_type": "functional, cell-based"}, "Leucine aminopeptidase": {"molecular_target": "T5, Leucine aminopeptidase (Plasmodium falciparum 3D7, UniProt Q8IL11)", "T5 sequence (Q8IL11 whole entry)": "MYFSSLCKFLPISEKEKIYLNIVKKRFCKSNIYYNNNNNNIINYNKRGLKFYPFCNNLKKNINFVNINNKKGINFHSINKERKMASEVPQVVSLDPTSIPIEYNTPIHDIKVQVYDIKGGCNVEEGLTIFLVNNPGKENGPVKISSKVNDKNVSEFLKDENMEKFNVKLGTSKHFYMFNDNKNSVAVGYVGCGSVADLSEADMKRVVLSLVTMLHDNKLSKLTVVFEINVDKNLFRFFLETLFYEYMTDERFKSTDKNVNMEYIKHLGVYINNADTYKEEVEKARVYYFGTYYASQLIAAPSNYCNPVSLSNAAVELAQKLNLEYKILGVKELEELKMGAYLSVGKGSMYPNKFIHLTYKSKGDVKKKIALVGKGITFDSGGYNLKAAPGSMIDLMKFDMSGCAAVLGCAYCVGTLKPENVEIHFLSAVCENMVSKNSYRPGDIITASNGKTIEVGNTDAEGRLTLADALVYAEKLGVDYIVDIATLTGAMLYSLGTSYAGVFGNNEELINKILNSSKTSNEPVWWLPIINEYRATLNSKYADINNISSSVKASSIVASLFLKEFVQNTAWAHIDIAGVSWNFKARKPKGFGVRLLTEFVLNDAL", "test": "P. falciparum M17LAP inhibitors, primary screen, biochemical, fluorogenic H-Leu-NHMec substrate, 1536-well (AID 1619)", "assay_type": "functional"}}, "note": "Activity calls are given as the source filed them.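 Wherever IC50 Mean is given: confirmatory dose-response retesting of NadD inhibitor hits first found in an ultra-high-throughput screen.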", "data": [{"smiles": "COC(=O)C(Cc1ccccc1)NCC(=O)Nc1cccc(Cl)c1C", "note": "(stereo not drawn)", "values": [{"measurement": "IC50", "setting": "[1]", "result": "1.57 µM (active)"}]}, {"smiles": "Cc1ccc(C(=O)Nc2cccc([N+](=O)[O-])c2)cc1S(=O)(=O)Nc1ccc(NC(=O)c2ccccc2)cc1", "values": [{"measurement": "EC50", "setting": "cells [2]", "result": "> 350 µM (not active)"}, {"measurement": "IC50", "setting": "[3]", "result": "61.1 µM (active)"}, {"measurement": "EC50", "setting": "cells [4]", "result": "> 350 µM (not active)"}, {"measurement": "IC50", "setting": "[5]", "result": "25.9 µM (active)"}]}, {"smiles": "O=C(NC(=O)N1CCN(c2cccc(Cl)c2)CC1)c1ccc(Cl)cc1", "values": [{"measurement": "IC50", "setting": "[6]", "result": "3.05 µM (active)"}, {"measurement": "AC50", "setting": "[7]", "result": "0.263 µM (active)"}]}, {"smiles": "NS(=O)(=O)c1ccc(CNc2ccc3ccccc3n2)cc1", "values": [{"measurement": "IC50", "setting": "[8]", "result": "3.57 µM (active)"}, {"measurement": "EC50", "setting": "[9]", "result": "> 50 µM (active)"}, {"measurement": "IC50", "setting": "[10]", "result": "3.76 µM (active)"}]}, {"smiles": "COc1ccc(-n2c(C)cc(C(=O)COC(=O)c3ccc(O)cc3O)c2C)cc1", "values": [{"measurement": "IC50", "setting": "[6]", "result": "5.7 µM (active)"}]}, {"smiles": "CCc1nnc(NC(=O)CCc2nc(C3=CCN(C)CC3)no2)s1", "values": [{"measurement": "IC50", "setting": "[11]", "result": "3.81 µM (active)"}]}, {"smiles": "CSc1ccccc1OCc1cc(C(=O)N2CCNC(=O)C2)no1", "values": [{"measurement": "IC50", "setting": "[11]", "result": "6.88 µM (active)"}]}, {"smiles": "COc1ccc2cc(C(c3nnnn3CCc3ccccc3)N3CCCC(C)C3)c(=O)[nH]c2c1", "note": "(stereo not drawn)", "values": [{"measurement": "IC50", "setting": "[1]", "result": "2.7 µM (active)"}]}, {"smiles": "Cc1ccc(CNC(=O)c2ccccc2NS(=O)(=O)c2ccc(Cl)nc2)cc1", "values": [{"measurement": "IC50", "setting": "[8]", "result": "4.22 µM (active)"}, {"measurement": "IC50", "setting": "[10]", "result": "7.31 µM (active)"}]}, {"smiles": "C[C@@H]1CCCCO[C@@H](CN(C)C(=O)Nc2ccc3c(c2)OCO3)[C@@H](C)CN([C@@H](C)CO)C(=O)c2cc(N(C)C)ccc2O1", "values": [{"measurement": "AC50", "setting": "[12]", "result": "114 µM (active)"}]}, {"smiles": "O=C(c1ccco1)N1CCN(c2cc(-c3ccccc3)nc3cc(-c4ccc(Cl)cc4)nn23)CC1", "values": [{"measurement": "EC50", "setting": "[13]", "result": "2.6 µM (active)"}, {"measurement": "EC50", "setting": "[14]", "result": "0.99 µM (active)"}]}, {"smiles": "O=C(c1ccc(Cl)cc1)N1CCN(c2cc(-c3ccccc3)nc3cc(-c4cccc(Cl)c4)nn23)CC1", "values": [{"measurement": "EC50", "setting": "[13]", "result": "1.74 µM (active)"}, {"measurement": "EC50", "setting": "[14]", "result": "1.99 µM (active)"}]}, {"smiles": "Cc1ccc(C(=O)O/N=C/c2c(N3CCOCC3)n(C)c3ccccc23)cc1", "values": [{"measurement": "EC50", "setting": "[15]", "result": "> 180 µM (inactive)"}, {"measurement": "EC50", "setting": "[16]", "result": "> 160 µM (inactive)"}, {"measurement": "EC50", "setting": "[17]", "result": "> 120 µM (not active)"}, {"measurement": "EC50", "setting": "[18]", "result": "3.44 µM (active)"}, {"measurement": "EC50", "setting": "[19]", "result": "> 160 µM (inconclusive)"}, {"measurement": "EC50", "setting": "[20]", "result": "10.9 µM (active)"}, {"measurement": "EC50", "setting": "[21]", "result": "> 120 µM (not active)"}, {"measurement": "EC50", "setting": "[22]", "result": "0.799 µM (active)"}, {"measurement": "AC50", "setting": "INS1", "result": "0.915 µM (active)"}, {"measurement": "EC50", "setting": "[23]", "result": "0.419 µM (active)"}]}, {"smiles": "O=C(O)COc1ccccc1/C=N/NC(=O)c1cccc(S(=O)(=O)Nc2cccc(Cl)c2)c1", "values": [{"measurement": "AC50", "setting": "[12]", "result": "73.8 µM (active)"}, {"measurement": "IC50", "setting": "Leucine aminopeptidase", "result": "21.3 µM (active)"}]}]}
